Measurements: patent publication US9067898B1, “Isothiazole derivatives as GPR120 agonists for the treatment of type II diabetes” (Janssen Pharmaceutica NV, priority 2014, dated 2015)
pEC50: −log10 of the molar value.

Biological target: T1, long form of human GPR120 (Homo sapiens, UniProt Q5NUL3)
T1 construct: host or cells: PathHunter CHO-K1 GPR120 β-Arrestin Cell Line
Assay: Human GPR120 DiscoveRx PathHunter Beta-Arrestin assay, Procedure β-arrestin A
Type: cell-based
Settings: PathHunter CHO-K1 GPR120 β-Arrestin cell line, 3000 cells per well, read-out: hGPR120 β-arrestin A EC50
Method in brief: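 PathHunter CHO-K1 β-arrestin cells expressed long-form GPR120 (Procedure A, 3000 cells/well) or short-form GPR120 (Procedure B, 5000 cells/well). Compounds were serially diluted from 25 µM and incubated 90 min at 37 °C in HBSS/20 mM HEPES/0.1% BSA, pH 7.4. Luminescence was read after 60 min detection at RT; EC50 comes from % activity versus positive control, Hill slope fixed at 1.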

T1 sequence (Q5NUL3 1-377 isoform Q5NUL3-1): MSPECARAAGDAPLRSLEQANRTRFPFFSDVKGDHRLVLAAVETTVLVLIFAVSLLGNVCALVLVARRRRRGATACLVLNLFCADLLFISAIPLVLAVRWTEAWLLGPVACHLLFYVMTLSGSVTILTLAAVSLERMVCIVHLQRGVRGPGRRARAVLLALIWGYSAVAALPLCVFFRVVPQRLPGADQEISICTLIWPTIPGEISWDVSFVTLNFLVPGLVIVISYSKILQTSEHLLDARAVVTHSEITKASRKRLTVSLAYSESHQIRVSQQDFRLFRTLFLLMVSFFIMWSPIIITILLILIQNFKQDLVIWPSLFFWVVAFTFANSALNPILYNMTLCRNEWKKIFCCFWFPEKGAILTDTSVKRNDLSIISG
T1 sequence (P32121 whole entry partner): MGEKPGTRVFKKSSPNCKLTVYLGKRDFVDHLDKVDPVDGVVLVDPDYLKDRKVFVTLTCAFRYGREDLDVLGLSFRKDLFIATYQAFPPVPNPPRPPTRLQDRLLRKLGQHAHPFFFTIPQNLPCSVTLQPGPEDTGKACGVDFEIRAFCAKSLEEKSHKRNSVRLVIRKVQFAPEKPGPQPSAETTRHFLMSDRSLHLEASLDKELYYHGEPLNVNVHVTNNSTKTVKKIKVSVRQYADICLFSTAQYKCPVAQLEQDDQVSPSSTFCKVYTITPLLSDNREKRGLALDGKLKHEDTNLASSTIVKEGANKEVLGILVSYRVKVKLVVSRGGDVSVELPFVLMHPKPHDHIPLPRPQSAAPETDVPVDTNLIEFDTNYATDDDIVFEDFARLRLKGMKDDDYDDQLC

How did the pEC50 turn out when `OCCCc1ccc(OCc2c(Cl)nsc2-c2ccc(Cl)cc2)c(F)c1F` [Cpd 102, 3-(4-((3-chloro-5-(4-chlorophenyl)isothiazol-4-yl)methoxy)-2,3-difluorophenyl)propan-1-ol] was run?
The pEC50 was 7.40.

With “3-(4-[[3-(4-chlorophenyl)-5-(trifluoromethyl)-1,2-thiazol-4-yl]methoxy]-3-methylphenyl)propanoic acid [Cpd 235]” as the compound, how does the pEC50 read?
The pEC50 was 6.37.

`O=C(O)CCc1cc(F)c(OCc2c(-c3ncc(Cl)cc3F)nsc2C(F)(F)F)c(F)c1` [Cpd 153, 3-(4-((3-(5-chloro-3-fluoropyridin-2-yl)-5-(trifluoromethyl)isothiazol-4-yl)methoxy)-3,5-difluorophenyl)propanoic acid] was tested. Which pEC50 did it give?
Its pEC50 is 6.72.

`O=C(O)CCc1cc(F)c(OCc2c(-c3ccc(Cl)c(F)c3)nsc2C(F)(F)F)c(F)c1F` [Cpd 138, 3-(4-((3-(4-chloro-3-fluorophenyl)-5-(trifluoromethyl)isothiazol-4-yl)methoxy)-2,3,5-trifluorophenyl)propanoic acid] was tested. Which pEC50 did it give?
The pEC50 was 6.94.

How did the pEC50 turn out when “3-(4-[[3-(4-ethylphenyl)-5-(trifluoromethyl)-1,2-thiazol-4-yl]methoxy]-1-benzothiophen-7-yl)propanoic acid [Cpd 92]” was run?
Its pEC50 is 7.55.

How did the pEC50 turn out when `CCc1ccc(-c2cc(F)sc2COc2ccc(CCC(=O)O)c(C)c2C)cc1` [Cpd 1, 3-(4-[[3-(4-ethylphenyl)-5-fluorothiophen-2-yl]methoxy]-2,3-dimethylphenyl)propanoic acid] was run?
Its pEC50 is 6.66.

How did the pEC50 turn out when `CCc1ccc(-c2nsc(C(F)(F)F)c2COc2ccc(CCC(=O)O)c(F)c2F)cc1` [Cpd 73, 3-(4-((3-(4-ethylphenyl)-5-(trifluoromethyl)isothiazol-4-yl)methoxy)-2,3-difluorophenyl)propanoic acid] was run?
The pEC50 was 6.87.

`O=C(O)CCc1c(F)c(F)c(OCc2c(-c3ccc(Cl)cc3)nsc2C(F)(F)F)c(F)c1F` [Cpd 152, 3-(4-((3-(4-chlorophenyl)-5-(trifluoromethyl)isothiazol-4-yl)methoxy)-2,3,5,6-tetrafluorophenyl)propanoic acid] was tested. Which pEC50 did it give?
Its pEC50 is 6.74.

`Cc1c(CCC(=O)O)ccc(OCc2c(-c3ccc(Cl)cc3)nsc2C(F)(F)F)c1C` [Cpd 142, 3-(4-((3-(4-chlorophenyl)-5-(trifluoromethyl)isothiazol-4-yl)methoxy)-2,3-dimethylphenyl)propanoic acid] was tested. Which pEC50 did it give?
Its pEC50 is 6.85.

With “3-(4-[[3-(4-ethylphenyl)-5-(trifluoromethyl)-1,2-thiazol-4-yl]methoxy]-3,5-difluorophenyl)propanoic acid [Cpd 70]” as the compound, how does the pEC50 read?
The pEC50 was 7.01.

With `O=C(O)CCc1cc(F)c(OCc2c(-c3ccc(Cl)cc3)nsc2C(F)(F)F)c(F)c1` [Cpd 79, 3-(4-[[3-(4-chlorophenyl)-5-(trifluoromethyl)-1,2-thiazol-4-yl]methoxy]-3,5-difluorophenyl)propanoic acid] as the compound, how does the pEC50 read?
The pEC50 was 7.15.

`OCC#Cc1cc(F)c(OCc2c(-c3ccc(Cl)cc3)nsc2C(F)(F)F)c(F)c1` [Cpd 213, 3-(4-[[3-(4-chlorophenyl)-5-(trifluoromethyl)-1,2-thiazol-4-yl]methoxy]-3,5-difluorophenyl)prop-2-yn-1-ol] was tested. Which pEC50 did it give?
The pEC50 was 7.23.

`Cc1ccccc1-c1snc(Cl)c1COc1c(F)cc(CCC(=O)O)cc1F` [Cpd 193, 3-(4-[[3-chloro-5-(2-methylphenyl)-1,2-thiazol-4-yl]methoxy]-3,5-difluorophenyl)propanoic acid] was tested. Which pEC50 did it give?
Its pEC50 is 6.49.

With `CCc1ccc(-c2snc(Cl)c2COc2ccc(CCC(=O)O)c(C)c2C)cc1` [Cpd 85, 3-(4-[[3-chloro-5-(4-ethylphenyl)-1,2-thiazol-4-yl]methoxy]-2,3-dimethylphenyl)propanoic acid] as the compound, how does the pEC50 read?
The pEC50 was 6.78.

With `O=C(O)CCc1cc(F)c(OCc2c(-c3ccc(Cl)cc3F)nsc2C(F)(F)F)c(F)c1` [Cpd 74, 3-(4-((3-(4-chloro-2-fluorophenyl)-5-(trifluoromethyl)isothiazol-4-yl)methoxy)-3,5-difluorophenyl)propanoic acid] as the compound, how does the pEC50 read?
Its pEC50 is 6.84.

`Cc1c(CCC(=O)O)ccc(OCc2c(-c3ncc(Cl)cc3F)nsc2C(F)(F)F)c1C` [Cpd 180, 3-(4-((3-(5-chloro-3-fluoropyridin-2-yl)-5-(trifluoromethyl)isothiazol-4-yl)methoxy)-2,3-dimethylphenyl)propanoic acid] was tested. Which pEC50 did it give?
The pEC50 was 6.25.

With `O=C(O)CCc1cc(F)c(OCc2c(-c3ccc(Cl)c(F)c3)nsc2C(F)(F)F)c(F)c1` [Cpd 67, 3-(4-((3-(4-chloro-3-fluorophenyl)-5-(trifluoromethyl)isothiazol-4-yl)methoxy)-3,5-difluorophenyl)propanoic acid] as the compound, how does the pEC50 read?
The pEC50 was 7.07.

With `O=C(O)CCc1cc(F)c(OCc2c(C3CCCC3)nsc2C(F)(F)F)c(F)c1` [Cpd 71, 3-(4-[[3-cyclopentyl-5-(trifluoromethyl)-1,2-thiazol-4-yl]methoxy]-3,5-difluorophenyl)propanoic acid] as the compound, how does the pEC50 read?
Its pEC50 is 6.56.

With `CCc1cc(CCC(=O)O)ccc1OCc1c(-c2ccc(Cl)cc2)nsc1C(F)(F)F` [Cpd 162, 3-(4-[[3-(4-chlorophenyl)-5-(trifluoromethyl)-1,2-thiazol-4-yl]methoxy]-3-ethylphenyl)propanoic acid] as the compound, how does the pEC50 read?
Its pEC50 is 6.81.

How did the pEC50 turn out when `OCCCc1cc(F)c(OCc2c(-c3ccc(Cl)cc3)nsc2C(F)(F)F)c(F)c1` [Cpd 100, 3-(4-[[3-(4-chlorophenyl)-5-(trifluoromethyl)-1,2-thiazol-4-yl]methoxy]-3,5-difluorophenyl)propan-1-ol] was run?
Its pEC50 is 7.01.

How did the pEC50 turn out when `Cc1c(CCC(=O)O)ccc(OCc2c(-c3ccccc3)nsc2C(F)(F)F)c1C` [Cpd 134, 3-(2,3-dimethyl-4-[[3-phenyl-5-(trifluoromethyl)-1,2-thiazol-4-yl]methoxy]phenyl)propanoic acid] was run?
Its pEC50 is 6.60.

With `OCCCc1cc(F)c(OCc2c(-c3ccc4c(c3)OCO4)nsc2C(F)(F)F)c(F)c1` [Cpd 93, 3-(4-[[3-(2H-1,3-benzodioxol-5-yl)-5-(trifluoromethyl)-1,2-thiazol-4-yl]methoxy]-3,5-difluorophenyl)propan-1-ol] as the compound, how does the pEC50 read?
The pEC50 was 7.42.

`OCCCc1cc(F)c(OCc2c(-c3ccc4c(c3)OCO4)csc2C(F)(F)F)c(F)c1` [Cpd 37, 3-(4-((4-(benzo[d][1,3]dioxol-5-yl)-2-(trifluoromethyl)thiophen-3-yl)methoxy)-3,5-difluorophenyl)propan-1-ol] was tested. Which pEC50 did it give?
Its pEC50 is 7.24.

How did the pEC50 turn out when `Cc1ccc(-c2nsc(C(F)(F)F)c2COc2c(F)cc(CCC(=O)O)cc2F)c(F)c1` [Cpd 65, 3-(3,5-difluoro-4-[[3-(2-fluoro-4-methylphenyl)-5-(trifluoromethyl)-1,2-thiazol-4-yl]methoxy]phenyl)propanoic acid] was run?
The pEC50 was 6.77.

`O=C(O)CCc1cc(F)c(OCc2c(-c3ccc(Cl)cc3)nsc2C(F)(F)F)c(F)c1F` [Cpd 116, 3-(4-((3-(4-chlorophenyl)-5-(trifluoromethyl)isothiazol-4-yl)methoxy)-2,3,5-trifluorophenyl)propanoic acid] was tested. Which pEC50 did it give?
The pEC50 was 6.95.

With `CC(Cc1cc(F)c(OCc2c(-c3ccc(Cl)cc3)nsc2C(F)(F)F)c(F)c1)C(=O)O` (centres unmarked) [Cpd 108, 3-(4-[[3-(4-chlorophenyl)-5-(trifluoromethyl)-1,2-thiazol-4-yl]methoxy]-3,5-difluorophenyl)-2-methylpropanoic acid] as the compound, how does the pEC50 read?
The pEC50 was 6.58.
